Laboratory results published in US20230150986A1, “ANTAGONISTS OF THE MUSCARINIC ACETYLCHOLINE RECEPTOR M4” (Vanderbilt University, priority 2019, published 2023).

Tests used:
[1] = target: T1, cytochrome P450 3A4 (Homo sapiens, UniProt P08684); assay: Cytochrome P450 cocktail inhibition assay, 3A4 (midazolam); assay type: in vitro ADME; conditions: human liver microsomes 0.1 mg/mL; read-out: CYP Inhibition (3A4)
T1 construct: human liver microsomes (HLM; 0.1 mg/mL); from tissue; host or cells: human liver microsomes
T1 sequence (P08684 whole entry): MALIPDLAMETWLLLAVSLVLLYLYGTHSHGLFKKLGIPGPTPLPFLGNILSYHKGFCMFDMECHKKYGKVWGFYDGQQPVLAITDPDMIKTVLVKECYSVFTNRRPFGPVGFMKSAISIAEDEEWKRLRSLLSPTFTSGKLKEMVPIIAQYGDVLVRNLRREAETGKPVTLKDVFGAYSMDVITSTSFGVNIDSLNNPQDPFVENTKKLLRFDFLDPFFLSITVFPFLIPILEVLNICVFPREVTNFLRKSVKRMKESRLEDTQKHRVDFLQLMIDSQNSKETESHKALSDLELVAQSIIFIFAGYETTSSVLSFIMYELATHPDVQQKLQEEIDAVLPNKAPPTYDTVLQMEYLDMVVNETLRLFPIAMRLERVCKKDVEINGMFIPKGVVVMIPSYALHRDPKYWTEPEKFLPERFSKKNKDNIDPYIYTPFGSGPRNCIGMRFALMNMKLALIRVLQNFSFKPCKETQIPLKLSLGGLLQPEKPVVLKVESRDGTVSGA
Procedure: Solutions of substrates for cytochrome P450 enzymes (1A2: Phenacetin, 10 μM; 2C9: Diclofenac, 5 μM; 2D6: Dextromethorphan, 5 μM; 3A4: Midazolam, 2 μM; as a mixture), test compound (VU6028418; multiple concentrations), and the positive control for pan-P450 inhibition (miconazole; multiple concentrations) were prepared. A reaction mixture of assay buffer (100 mM Kpi at pH 7.4), human liver microsomes (HLM; 0.1 mg/mL), and the substrate mixture were aliquoted into a 96-deepwell plate. The test compound and control were then added to the plate such that the final concentration of test compound ranged from 0.1-30 μM (two replicates per concentration). The assay plate was vortexed (briefly) and pre-incubated at 37° C. in an orbital shaker for 15 minutes. The reaction was initiated by addition of NADPH (1 mM, final concentration) and continued for 8 min before it was quenched by acetonitrile (2× volume) containing an LCMS internal standard (carbamazepine, 50 nM). The plate was then centrifuged (4000 rcf, 4° C., 10 min), and the resulting supernatant was diluted with water (1× volume) for LC-MS/MS. Assay samples were analyzed via electrospray ionization on an AB Sciex API-4000 (Foster City, Calif.) triple-quadrupole mass spectrometer coupled to Agilent Technologies 1290 Infinity series pumps (Santa Clara, Calif.), and a Leap Technologies CTC PAL auto -sampler (Carrboro, NC). Analytes were separated by gradient elution on a Phenomenex Kinetex (C18 2.1×50 mm 5 μm) column (Torrance, Calif.) thermostated at 40° C. The HPLC mobile phase A was 0.1% formic acid in water (pH unadjusted), and the mobile phase B was 0.1% formic acid in acetonitrile (pH unadjusted). […] The total run time was 2.5 min and the HPLC flow rate was 0.5 mL/min. The source temperature was set at 500° C. and mass spectral analyses were performed using multiple reaction monitoring (MRM) with mass transitions specific to each substrate's metabolite utilizing a Turbo-Ionspray® source in positive ionization mode (5.0 kV spray voltage). The test compound and control IC50 values for each enzyme were obtained by quantitating the inhibition of metabolite formation for each substrate. A 0 μM test compound (or control) conditions represented 100% enzymatic activity, and the effect of increasing test compound concentrations on enzymatic activity was then calculated from the % of control activity. Inhibition curves were fitted using XLfit 5.2.2 (four-parameter logistic model, equation 201) in order to calculate the concentration that produced half-maximal inhibition (IC50) of each enzyme.

[2] = target: T2, P-gp (Homo sapiens, UniProt P08183); assay: P-gp efflux in MDR1-MDCK cell monolayers; assay type: in vitro ADME; conditions: dog, pH 7.4, MDCK-MDR1, 5 μM
T2 construct: expressed in transfected cells; host or cells: MDR1-MDCK
T2 sequence (P08183 whole entry): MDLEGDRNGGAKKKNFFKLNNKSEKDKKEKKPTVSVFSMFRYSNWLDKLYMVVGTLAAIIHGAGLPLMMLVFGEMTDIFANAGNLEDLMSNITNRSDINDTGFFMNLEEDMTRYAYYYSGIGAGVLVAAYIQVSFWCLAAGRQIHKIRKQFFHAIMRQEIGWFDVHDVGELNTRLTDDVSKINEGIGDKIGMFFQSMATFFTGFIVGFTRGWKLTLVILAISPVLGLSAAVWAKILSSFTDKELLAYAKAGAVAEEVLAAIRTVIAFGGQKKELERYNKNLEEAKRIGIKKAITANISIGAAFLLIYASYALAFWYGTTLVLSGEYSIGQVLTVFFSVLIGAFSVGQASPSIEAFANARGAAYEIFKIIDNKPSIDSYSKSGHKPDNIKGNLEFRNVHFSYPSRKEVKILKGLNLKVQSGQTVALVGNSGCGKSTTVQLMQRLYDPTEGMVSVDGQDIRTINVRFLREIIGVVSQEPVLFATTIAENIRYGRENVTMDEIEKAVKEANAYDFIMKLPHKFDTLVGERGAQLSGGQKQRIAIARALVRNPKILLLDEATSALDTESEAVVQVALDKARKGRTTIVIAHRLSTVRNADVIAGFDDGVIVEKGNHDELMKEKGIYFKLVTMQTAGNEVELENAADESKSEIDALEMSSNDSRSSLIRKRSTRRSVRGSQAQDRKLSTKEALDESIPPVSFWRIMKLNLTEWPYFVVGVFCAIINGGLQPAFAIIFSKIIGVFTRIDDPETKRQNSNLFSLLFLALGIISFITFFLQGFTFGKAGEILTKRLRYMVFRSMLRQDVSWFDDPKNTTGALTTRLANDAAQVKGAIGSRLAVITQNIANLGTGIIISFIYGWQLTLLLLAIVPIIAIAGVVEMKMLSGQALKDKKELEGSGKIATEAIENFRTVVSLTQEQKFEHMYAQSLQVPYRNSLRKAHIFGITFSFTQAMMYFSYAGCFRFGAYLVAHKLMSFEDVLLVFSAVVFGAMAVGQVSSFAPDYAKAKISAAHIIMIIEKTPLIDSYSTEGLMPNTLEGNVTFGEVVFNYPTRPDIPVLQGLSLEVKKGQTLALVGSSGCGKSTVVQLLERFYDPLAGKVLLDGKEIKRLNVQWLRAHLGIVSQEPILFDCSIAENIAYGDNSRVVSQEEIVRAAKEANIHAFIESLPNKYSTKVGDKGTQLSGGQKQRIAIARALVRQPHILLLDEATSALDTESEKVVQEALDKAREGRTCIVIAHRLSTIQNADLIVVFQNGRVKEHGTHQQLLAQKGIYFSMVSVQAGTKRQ
Procedure: MDR1-MDCK cell monolayers were grown to confluence on collagen-coated, microporous membranes in 12-well assay plates. The permeability assay buffer was Hanks' balanced salt solution containing 10 mM HEPES and 15 mM glucose at a pH of 7.4. The buffer in the receiver chamber also contained 1% bovine serum albumin. The dosing solution concentration was 5 μM of test article in the assay buffer. Cell monolayers were dosed on the apical side (A- to -B) or basolateral side (B- to -A) and incubated at 37° C. with 5% CO2 in a humidified incubator. Samples were taken from the donor and receiver chambers at 120 minutes Each determination was performed in duplicate. The flux of lucifer yellow was also measured post-experimentally for each monolayer to ensure no damage was inflicted to the cell monolayers during the flux period. All samples were assayed by LC-MS/MS using electrospray ionization.

SMILES	IC50 [1] [µM]	efflux ratio at 120 min, 5 μM [2]
Fc1cc(F)c(F)c(-c2ccc(N[C@H]3C[C@@H]4CN(CC5CCOCC5)C[C@@H]4C3)nn2)c1 [Compound 1, (3aR,5s,6aS)-2-((tetrahydro-2H-pyran-4-yl)methyl)-N-(6-(2,3,5-trifluorophenyl)pyridazin-3-yl)octahydrocyclopenta[c]pyrrol-5-amine]	> 30	8.9
Fc1cc(F)c(F)c(-c2ccc(N[C@H]3C[C@@H]4CN(Cc5ccccn5)C[C@@H]4C3)nn2)c1 [Compound 2, (3aR,5s,6aS)-2-(pyridin-2-ylmethyl)-N-(6-(2,3,5-trifluorophenyl)pyridazin-3-yl)octahydrocyclopenta[c]pyrrol-5-amine]	> 30	2.6
